One assay deals with rat TAAR1 (Rattus norvegicus, UniProt Q923Y9). Put plainly: Radioligand binding on membranes of HEK293 cells stably expressing rat TAAR1.
The next assay has as its target mouse TAAR1 (Mus musculus, UniProt Q923Y8). The experiment in a line: Radioligand binding on membranes of HEK293 cells stably expressing mouse TAAR1.

Sequence of mouse TAAR1 (Q923Y8 whole entry): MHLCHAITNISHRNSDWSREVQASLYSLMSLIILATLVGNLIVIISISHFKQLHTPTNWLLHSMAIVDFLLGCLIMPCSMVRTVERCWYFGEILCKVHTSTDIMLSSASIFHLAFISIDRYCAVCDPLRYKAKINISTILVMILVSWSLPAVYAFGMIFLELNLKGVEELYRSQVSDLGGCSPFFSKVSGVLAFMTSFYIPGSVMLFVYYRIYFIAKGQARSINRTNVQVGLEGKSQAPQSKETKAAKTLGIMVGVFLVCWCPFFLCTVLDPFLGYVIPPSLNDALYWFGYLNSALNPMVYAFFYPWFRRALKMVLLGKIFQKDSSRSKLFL
Sequence of rat TAAR1 (Q923Y9 whole entry): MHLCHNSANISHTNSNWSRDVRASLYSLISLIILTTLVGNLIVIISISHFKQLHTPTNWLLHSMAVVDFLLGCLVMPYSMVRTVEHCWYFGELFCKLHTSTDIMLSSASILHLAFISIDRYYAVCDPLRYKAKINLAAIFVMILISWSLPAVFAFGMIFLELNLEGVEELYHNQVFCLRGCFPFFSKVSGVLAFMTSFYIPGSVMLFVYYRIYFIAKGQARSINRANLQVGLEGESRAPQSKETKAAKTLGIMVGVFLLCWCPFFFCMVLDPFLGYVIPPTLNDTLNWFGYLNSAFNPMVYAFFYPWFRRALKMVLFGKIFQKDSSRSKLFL

The Ki is the equilibrium dissociation constant of an inhibitor or competing ligand from its target. Low readings indicate higher affinity, high ones lower affinity. Consider `NC1=N[C@@H](CNc2ccc(C(F)(F)F)cc2)CO1` [Example 132, (S)-4-[(4-Trifluoromethyl-phenylamino)-methyl]-4,5-dihydro-oxazol-2-ylamine], for which the Ki is 24.8 nM on rat TAAR1 and 4.7 nM on mouse TAAR1.

With `CCN(C[C@H]1COC(N)=N1)c1cccc(Br)c1` [Example 37, (S)-4-{[(3-Bromo-phenyl)-ethyl-amino]-methyl}-4,5-dihydro-oxazol-2-ylamine], the inhibition constant Ki at rat TAAR1 was 1.8 nM; on mouse TAAR1, 9.7 nM.

For the compound `COc1cc(N(Cc2ccccc2)C[C@H]2COC(N)=N2)ccc1F` [Example 42, (S)-4-{[Benzyl-(4-fluoro-3-methoxy-phenyl)-amino]-methyl}-4,5-dihydro-oxazol-2-ylamine], the Ki at rat TAAR1 stood at 1.1 nM; at mouse TAAR1, 26.4 nM.

Take `CCN(C[C@H]1COC(N)=N1)c1cccc(Cl)c1` [Example 83, (S)-4-{[(3-Chloro-phenyl)-ethyl-amino]-methyl}-4,5-dihydro-oxazol-2-ylamine]: the inhibition constant Ki at rat TAAR1 was 1 nM.

As to `CCN(C[C@H]1COC(N)=N1)c1cccc(C)c1` [Example 65, (S)-4-[(Ethyl-m-tolyl-amino)-methyl]-4,5-dihydro-oxazol-2-ylamine], the inhibitory constant (Ki) worked out at 2.7 nM at rat TAAR1 and 1.9 nM at mouse TAAR1.

`CCN(C[C@@H]1COC(N)=N1)c1ccc(F)c(OC)c1` [Example 139, (R)-4-{[Ethyl-(4-fluoro-3-methoxy-phenyl)-amino]-methyl}-4,5-dihydro-oxazol-2-ylamine]: the inhibition constant (Ki) at rat TAAR1 came to 1.6 nM; at mouse TAAR1, 4.1 nM.

As to `CCN(C[C@H]1COC(N)=N1)c1ccc(Br)cc1` [Example 32, (S)-4-{[(4-Bromo-phenyl)-ethyl-amino]-methyl}-4,5-dihydro-oxazol-2-ylamine], the results for the Ki on rat TAAR1 and on mouse TAAR1 were 0.6 nM and 2.8 nM, respectively.

As to `NC1=N[C@@H](CN(Cc2ccccc2)c2ccc(Cl)cc2)CO1` [Example 55, (S)-4-[{Benzyl-(4-chloro-phenyl)-amino]-methyl}-4,5-dihydro-oxazol-2-ylamine], the Ki at rat TAAR1 was determined as 0.6 nM; at mouse TAAR1, 28.8 nM.

Turning to `CCN(C[C@@H]1COC(N)=N1)c1ccc(Cl)cc1` [Example 126, (R)-4-{[(4-Chloro-phenyl)-ethyl-amino]-methyl}-4,5-dihydro-oxazol-2-ylamine], the Ki on rat TAAR1 was determined as 1.2 nM; at mouse TAAR1 it was 1.6 nM.

With `CN(C[C@H]1COC(N)=N1)c1ccc(F)cc1F` [Example 146, (S)-4-{[(2,4-Difluoro-phenyl)-methyl-amino]-methyl}-4,5-dihydro-oxazol-2-ylamine], the values for the inhibition constant (Ki) at rat TAAR1 and on mouse TAAR1 were 6.2 nM and 3.1 nM, respectively.

With `CCN(C[C@H]1COC(N)=N1)c1ccc(C(F)(F)F)cc1C` [Example 175, (S)-4-{[Ethyl-(2-methyl-4-trifluoromethyl-phenyl)-amino]-methyl}-4,5-dihydro-oxazol-2-ylamine], the inhibition constant Ki on rat TAAR1 was found to be 8.3 nM; on mouse TAAR1, 9.2 nM.

In the case of `CC(C)N(C[C@@H]1COC(N)=N1)c1ccc(Cl)c(Cl)c1` [Example 159, (R)-4-{[(3,4-Dichloro-phenyl)-isopropyl-amino]-methyl}-4,5-dihydro-oxazol-2-ylamine], the Ki came out at 1.4 nM on rat TAAR1 and 5.3 nM on mouse TAAR1.

Compound `CCc1cccc(N(CC)C[C@H]2COC(N)=N2)c1` [Example 92, (S)-4-{[Ethyl-(3-ethyl-phenyl)-amino]-methyl}-4,5-dihydro-oxazol-2-ylamine] gave a Ki on rat TAAR1 of 37000 nM.

With `Cc1ccc(N(C)C[C@H]2COC(N)=N2)c(F)c1` [Example 113, (S)-4-{[(2-Fluoro-4-methyl-phenyl)-methyl-amino]-methyl}-4,5-dihydro-oxazol-2-ylamine], the Ki at rat TAAR1 came out at 6.2 nM; at mouse TAAR1 it was 2.8 nM.

Turning to `CN(C[C@H]1COC(N)=N1)c1cc(Cl)cc(Cl)c1` [Example 160, (S)-4-{[(3,5-Dichloro-phenyl)-methyl-amino]-methyl}-4,5-dihydro-oxazol-2-ylamine], the inhibition constant Ki turned out to be 0.9 nM on rat TAAR1 and 1.3 nM on mouse TAAR1.

In the case of `CN(C[C@H]1COC(N)=N1)c1cccc(Br)c1` [Example 34, (S)-4-{[(3-Bromo-phenyl)-methyl-amino]-methyl}-4,5-dihydro-oxazol-2-ylamine], the inhibitory constant (Ki) is 4.7 nM at rat TAAR1 and 1.2 nM on mouse TAAR1.

`CCN(C[C@@H]1COC(N)=N1)c1ccc(Cl)c(Cl)c1` [Example 158, (R)-4-{[(3,4-Dichloro-phenyl)-ethyl-amino]-methyl}-4,5-dihydro-oxazol-2-ylamine]: the Ki was 0.4 nM at rat TAAR1 and 2.2 nM on mouse TAAR1.

`CCN(C[C@H]1COC(N)=N1)c1ccc(C(F)(F)F)cc1` [Example 133, (S)-4-{[Ethyl-(4-trifluoromethyl-phenyl)-amino]-methyl}-4,5-dihydro-oxazol-2-ylamine]: the inhibition constant Ki on rat TAAR1 amounted to 4.9 nM; at mouse TAAR1 it was 4.2 nM.

As to `CCN(C[C@H]1COC(N)=N1)c1ccccc1F` [Example 107, (S)-4-{[Ethyl-(2-fluoro-phenyl)-amino]-methyl}-4,5-dihydro-oxazol-2-ylamine], the results for the inhibition constant Ki on rat TAAR1 and at mouse TAAR1 were 14.9 nM and 3.9 nM, respectively.

For the compound `CCc1ccc(N(CC)C[C@H]2COC(N)=N2)cc1` [Example 94, (S)-4-{[Ethyl-(4-ethyl-phenyl)-amino]-methyl}-4,5-dihydro-oxazol-2-ylamine], the affinity at rat TAAR1 corresponds to a Ki of 51000 nM.

`NC1=N[C@@H](CNc2ccccc2Cl)CO1` [Example 119, (S)-4-[(2-Chloro-phenylamino)-methyl]-4,5-dihydro-oxazol-2-ylamine]: the inhibition constant (Ki) is 4.2 nM at rat TAAR1 and 1.1 nM at mouse TAAR1.

Regarding `CN(C[C@H]1COC(N)=N1)c1ccc(Cl)cc1F` [Example 100, (S)-4-{[(4-Chloro-2-fluoro-phenyl)-methyl-amino]-methyl}-4,5-dihydro-oxazol-2-ylamine], the Ki at rat TAAR1 turned out to be 3 nM; on mouse TAAR1 it was 2.7 nM.

Turning to `CCN(C[C@H]1COC(N)=N1)c1ccc(Cl)c(OC)c1` [Example 28, (S)-4-{[(4-Chloro-3-methoxy-phenyl)-ethyl-amino]-methyl}-4,5-dihydro-oxazol-2-ylamine], the inhibitory constant (Ki) at rat TAAR1 was found to be 0.6 nM; at mouse TAAR1, 2.3 nM.

With `CCN(C[C@@H]1COC(N)=N1)c1ccc2ccccc2c1` [Example 163, (R)-4-[(Ethyl-naphthalen-2-yl-amino)-methyl]-4,5-dihydro-oxazol-2-ylamine], the Ki at rat TAAR1 is 5.2 nM; on mouse TAAR1, 2.9 nM.

Consider `NC1=N[C@@H](CNc2ccc(C(F)(F)F)c(F)c2)CO1` [Example 127, (S)-4-[(3-Fluoro-4-trifluoromethyl-phenylamino)-methyl]-4,5-dihydro-oxazol-2-ylamine], for which the inhibitory constant (Ki) on rat TAAR1 was determined as 15.7 nM; at mouse TAAR1, 4.6 nM.

For the compound `CN(C[C@@H]1COC(N)=N1)c1ccc(Cl)c(Cl)c1` [Example 157, (R)-4-{[(3,4-Dichloro-phenyl)-methyl-amino]-methyl}-4,5-dihydro-oxazol-2-ylamine], the Ki on rat TAAR1 worked out at 2.1 nM; at mouse TAAR1, 1.7 nM.

On to `NC1=N[C@@H](CNc2ccc(F)cc2F)CO1` [Example 152, (S)-4-[(2,4-Difluoro-phenylamino)-methyl]-4,5-dihydro-oxazol-2-ylamine], for which the Ki on rat TAAR1 was 7.2 nM; on mouse TAAR1, 3.2 nM.

Turning to `CCN(C[C@H]1COC(N)=N1)c1ccc(F)cc1F` [Example 145, (S)-4-{[(2,4-Difluoro-phenyl)-ethyl-amino]-methyl}-4,5-dihydro-oxazol-2-ylamine], the inhibition constant (Ki) came to 4.8 nM on rat TAAR1 and 8.2 nM at mouse TAAR1.

`COc1cc(N(C)C[C@H]2COC(N)=N2)ccc1F` [Example 40, (S)-4-{[(4-Fluoro-3-methoxy-phenyl)-methyl-amino]-methyl}-4,5-dihydro-oxazol-2-ylamine]: the inhibition constant Ki amounted to 2 nM at rat TAAR1 and 1.1 nM at mouse TAAR1.

For the compound `CN(C[C@H]1COC(N)=N1)c1ccc2ccccc2c1` [Example 77, (S)-4-[(Methyl-naphthalen-2-yl-amino)-methyl]-4,5-dihydro-oxazol-2-ylamine], the Ki on mouse TAAR1 was 0.4 nM.

As for `CN(C[C@@H]1COC(N)=N1)c1ccc(Cl)cc1` [Example 125, (R)-4-{[(4-Chloro-phenyl)-methyl-amino]-methyl}-4,5-dihydro-oxazol-2-ylamine], the Ki is 5.6 nM on rat TAAR1 and 2.3 nM on mouse TAAR1.

Consider `COc1cc(N(C)C[C@@H]2COC(N)=N2)ccc1Cl` [Example 140, (R)-4-{[(4-Chloro-3-methoxy-phenyl)-methyl-amino]-methyl}-4,5-dihydro-oxazol-2-ylamine], for which the Ki on rat TAAR1 was 4.1 nM; at mouse TAAR1, 2.6 nM.

`CCN(C[C@H]1COC(N)=N1)c1ccc(Cl)cc1F` [Example 95, (S)-4-{[(4-Chloro-2-fluoro-phenyl)-ethyl-amino]-methyl}-4,5-dihydro-oxazol-2-ylamine] yielded a Ki at rat TAAR1 of 1.5 nM.

For `CCN(C[C@H]1COC(N)=N1)c1ccc2c(c1)CCC2` [Example 99, (S)-4-[(Ethyl-indan-5-yl-amino)-methyl]-4,5-dihydro-oxazol-2-ylamine], the inhibition constant (Ki) came out at 3.2 nM at rat TAAR1 and 6 nM on mouse TAAR1.

Take `NC1=N[C@@H](CNc2cccc(Cl)n2)CO1` [Example 135, ((S)-2-Amino-4,5-dihydro-oxazol-4-ylmethyl)-(6-chloro-pyridin-2-yl)-amine]: the inhibitory constant (Ki) on rat TAAR1 was 48.9 nM; at mouse TAAR1, 8.7 nM.

`CCN(C[C@H]1COC(N)=N1)c1ccccc1` [Example 3, (S)-4-[(Ethyl-phenyl-amino)-methyl]-4,5-dihydro-oxazol-2-ylamine]: the Ki on rat TAAR1 and on mouse TAAR1 was 1 nM in each case.

For the compound `COc1cc(N(C)C[C@@H]2COC(N)=N2)ccc1F` [Example 138, (R)-4-{[(4-Fluoro-3-methoxy-phenyl)-methyl-amino]-methyl}-4,5-dihydro-oxazol-2-ylamine], the inhibitory constant (Ki) on rat TAAR1 was 9.3 nM; at mouse TAAR1, 4.4 nM.

`NC1=N[C@@H](CNc2cccc(Cl)c2)CO1` [Example 87, (S)-4-[(3-Chloro-phenylamino)-methyl]-4,5-dihydro-oxazol-2-ylamine] gave an inhibition constant Ki on rat TAAR1 of 7.3 nM.

The record behind these values is patent US7902238B2, “2-aminooxazolines as TAAR1 ligands” (Hoffmann-La Roche Inc., priority 2007, dated 2011).
